Where “and” joins values, the source holds several entries; their conditions need not be identical. Equal values may be shown once.
Columns and labels:
[1] = test system: wireworm of genus Agriotes; test: Wireworm repellent pot assay on corn in greenhouse; type: in vivo; settings: eight days after sowing
Description: Testing took place in pot assays. Per pot four corn seeds were sown (see FIG. 2A). In each pot four wireworm of genus Agriotes were placed in a central cavity of 5 cm depth (see FIG. 2B). […] The seeds in the pots were germinated and seedlings were grown under controlled conditions in greenhouse.
Eight days after sowing the plant biomass (FIG. 3; Table 6) as well as seed damage (FIG. 4A; Table 6) were assessed.

corn seeds = test: Phytotoxicity: cold test germination rate (CT) of treated corn seeds; settings: for ΔCT: vs no Bitrex
Description: In order to evaluate the phytotoxicity of different corn seed treatments, safety tests were conducted. Germination rates of corn seeds treated with various concentrations of denatonium benzoate (Bitrex®) [in g per unit, where 1 unit is 50.000 seeds] were counted after five days at 25° C. Cold test germination rates (CT) were counted after 7 days at 10° C. and 5 days at 25° C. The treatments were compared to untreated seeds.
KF=germination rates counted after 5 days at 25° C. and CT=cold test germination rates counted after 7 days at 10° C. and 5 days at 25° C.

[2] = test system: wireworm of genus Agriotes; test: Wireworm field trial in Italy: insect damage (DAMINS); type: in vivo
Description: Evaluation took place at emergence (E), at V3 stage (=3 leaves unfolded) and at V5 stage (=5 leaves unfolded). The following characteristics have been phenotyped: phytotoxicity (PHYGEN) at stage E, V3 and V5 in % per plot, vigor (VIGOR) at stage E, V3 and V5 in ratings from 1-10 (10 is best), insect damage (DAMINS) at stage V5 in plants per row (left DAMINS column in Table 7) and in % per row (right DAMINS column in Table 7).

[3] = corn Amavit, chemical no, Bitrex 0.2 g/u
[4] = corn Amavit, chemical no, Bitrex 0.5 g/u
[5] = corn Amavit, chemical no, Bitrex 1.0 g/u
[6] = corn Amavit, chemical no, Bitrex 2.0 g/u
[7] = corn Amavit, chemical no, Bitrex 5.0 g/u
[8] = corn Amavit, with MaximXL, Bitrex 0.2 g/u
[9] = corn Amavit, with MaximXL, Bitrex 0.5 g/u
[10] = corn Amavit, with MaximXL, Bitrex 1.0 g/u
[11] = corn Amavit, with MaximXL, Bitrex 2.0 g/u
[12] = corn Amavit, with MaximXL, Bitrex 5.0 g/u
[13] = corn Amavit, with RedigoM, Bitrex 0.2 g/u
[14] = corn Amavit, with RedigoM, Bitrex 0.5 g/u
[15] = corn Amavit, with RedigoM, Bitrex 1.0 g/u
[16] = corn Amavit, with RedigoM, Bitrex 2.0 g/u
[17] = corn Amavit, with RedigoM, Bitrex 5.0 g/u
[18] = corn KXB6432, chemical no, Bitrex 0.2 g/u
[19] = corn KXB6432, chemical no, Bitrex 0.5 g/u
[20] = corn KXB6432, chemical no, Bitrex 1.0 g/u
[21] = corn KXB6432, chemical no, Bitrex 2.0 g/u
[22] = corn KXB6432, chemical no, Bitrex 5.0 g/u
[23] = corn KXB6432, with MaximXL, Bitrex 0.2 g/u
[24] = corn KXB6432, with MaximXL, Bitrex 0.5 g/u
[25] = corn KXB6432, with MaximXL, Bitrex 1.0 g/u
[26] = corn KXB6432, with MaximXL, Bitrex 2.0 g/u
[27] = corn KXB6432, with MaximXL, Bitrex 5.0 g/u
[28] = corn KXB6432, with RedigoM, Bitrex 0.2 g/u
[29] = corn KXB6432, with RedigoM, Bitrex 0.5 g/u
[30] = corn KXB6432, with RedigoM, Bitrex 1.0 g/u
[31] = corn KXB6432, with RedigoM, Bitrex 2.0 g/u
[32] = corn KXB6432, with RedigoM, Bitrex 5.0 g/u
[33] = ø of varieties and chemicals, Bitrex 0.2 g/u
[34] = ø of varieties and chemicals, Bitrex 0.5 g/u
[35] = ø of varieties and chemicals, Bitrex 1.0 g/u
[36] = ø of varieties and chemicals, Bitrex 2.0 g/u
[37] = ø of varieties and chemicals, Bitrex 5.0 g/u
[38] = ø of varieties, chemical no, Bitrex 0.2 g/u
[39] = ø of varieties, chemical no, Bitrex 0.5 g/u
[40] = ø of varieties, chemical no, Bitrex 1.0 g/u
[41] = ø of varieties, chemical no, Bitrex 2.0 g/u
[42] = ø of varieties, chemical no, Bitrex 5.0 g/u
[43] = ø of varieties, with MaximXL, Bitrex 0.2 g/u
[44] = ø of varieties, with MaximXL, Bitrex 0.5 g/u
[45] = ø of varieties, with MaximXL, Bitrex 1.0 g/u
[46] = ø of varieties, with MaximXL, Bitrex 2.0 g/u
[47] = ø of varieties, with MaximXL, Bitrex 5.0 g/u
[48] = ø of varieties, with RedigoM, Bitrex 0.2 g/u
[49] = ø of varieties, with RedigoM, Bitrex 0.5 g/u
[50] = ø of varieties, with RedigoM, Bitrex 1.0 g/u
[51] = ø of varieties, with RedigoM, Bitrex 2.0 g/u
[52] = ø of varieties, with RedigoM, Bitrex 5.0 g/u

CC[N+](CC)(CC(=O)Nc1c(C)cccc1C)Cc1ccccc1.O=C([O-])c1ccccc1 [Bitrex, N-Benzyl-2-(2,6-dimethylanilino)-N, N-diethyl-2-oxoethan-1-aminium benzoate]
biomass of plantlets compared with controls [1]: comparable or even more biomass than control plants without wireworm infestations | CT cold test germination rate, 7 days at 10° C. and 5 days at 25° C. (corn seeds; [3]): 91.5% | CT cold test germination rate, 7 days at 10° C. and 5 days at 25° C. (corn seeds; [4]): 89.0% | CT cold test germination rate, 7 days at 10° C. and 5 days at 25° C. (corn seeds; [5]): 95.5% | CT cold test germination rate, 7 days at 10° C. and 5 days at 25° C. (corn seeds; [6]): 93.0% | CT cold test germination rate, 7 days at 10° C. and 5 days at 25° C. (corn seeds; [7]): 96.5% | CT cold test germination rate, 7 days at 10° C. and 5 days at 25° C. (corn seeds; [8]): 98.0% | CT cold test germination rate, 7 days at 10° C. and 5 days at 25° C. (corn seeds; [9]): 98.0% | CT cold test germination rate, 7 days at 10° C. and 5 days at 25° C. (corn seeds; [10]): 97.0% | CT cold test germination rate, 7 days at 10° C. and 5 days at 25° C. (corn seeds; [11]): 99.0% | CT cold test germination rate, 7 days at 10° C. and 5 days at 25° C. (corn seeds; [12]): 99.0% | CT cold test germination rate, 7 days at 10° C. and 5 days at 25° C. (corn seeds; [13]): 97.5% | CT cold test germination rate, 7 days at 10° C. and 5 days at 25° C. (corn seeds; [14]): 99.0% | CT cold test germination rate, 7 days at 10° C. and 5 days at 25° C. (corn seeds; [15]): 99.0% | CT cold test germination rate, 7 days at 10° C. and 5 days at 25° C. (corn seeds; [16]): 95.5% | CT cold test germination rate, 7 days at 10° C. and 5 days at 25° C. (corn seeds; [17]): 96.5% | CT cold test germination rate, 7 days at 10° C. and 5 days at 25° C. (corn seeds; [18]): 98.0% | CT cold test germination rate, 7 days at 10° C. and 5 days at 25° C. (corn seeds; [19]): 97.5% | CT cold test germination rate, 7 days at 10° C. and 5 days at 25° C. (corn seeds; [20]): 97.0% | CT cold test germination rate, 7 days at 10° C. and 5 days at 25° C. (corn seeds; [21]): 90.5% | CT cold test germination rate, 7 days at 10° C. and 5 days at 25° C. (corn seeds; [22]): 90.5% | CT cold test germination rate, 7 days at 10° C. and 5 days at 25° C. (corn seeds; [23]): 100.0% | CT cold test germination rate, 7 days at 10° C. and 5 days at 25° C. (corn seeds; [24]): 99.5% | CT cold test germination rate, 7 days at 10° C. and 5 days at 25° C. (corn seeds; [25]): 98.0% | CT cold test germination rate, 7 days at 10° C. and 5 days at 25° C. (corn seeds; [26]): 96.5% | CT cold test germination rate, 7 days at 10° C. and 5 days at 25° C. (corn seeds; [27]): 99.0% | CT cold test germination rate, 7 days at 10° C. and 5 days at 25° C. (corn seeds; [28]): 97.0% | CT cold test germination rate, 7 days at 10° C. and 5 days at 25° C. (corn seeds; [29]): 96.5% | CT cold test germination rate, 7 days at 10° C. and 5 days at 25° C. (corn seeds; [30]): 99.5% | CT cold test germination rate, 7 days at 10° C. and 5 days at 25° C. (corn seeds; [31]): 98.5% | CT cold test germination rate, 7 days at 10° C. and 5 days at 25° C. (corn seeds; [32]): 96.5% | ΔCT (corn seeds; [3]): 6.0% | ΔCT (corn seeds; [4]): 3.5% | ΔCT (corn seeds; [5]): 10.0% | ΔCT (corn seeds; [6]): 7.5% | ΔCT (corn seeds; [7]): 11.0% | ΔCT (corn seeds; [8]): −2.0% | ΔCT (corn seeds; [9]): −2.0% | ΔCT (corn seeds; [10]): −3.0% | ΔCT (corn seeds; [11]): −1.0% | ΔCT (corn seeds; [12]): −1.0% | ΔCT (corn seeds; [13]): 0.5% | ΔCT (corn seeds; [14]): 2.0% | ΔCT (corn seeds; [15]): 2.0% | ΔCT (corn seeds; [16]): −1.5% | ΔCT (corn seeds; [17]): −0.5% | ΔCT (corn seeds; [18]): 5.5% | ΔCT (corn seeds; [19]): 5.0% | ΔCT (corn seeds; [20]): 4.5% | ΔCT (corn seeds; [21]): −2.0% | ΔCT (corn seeds; [22]): −2.0% | ΔCT (corn seeds; [23]): 1.0% | ΔCT (corn seeds; [24]): 0.5% | ΔCT (corn seeds; [25]): −1.0% | ΔCT (corn seeds; [26]): −2.5% | ΔCT (corn seeds; [27]): 0.0% | ΔCT (corn seeds; [28]): −0.5% | ΔCT (corn seeds; [29]): −1.0% | ΔCT (corn seeds; [30]): 2.0% | ΔCT (corn seeds; [31]): 1.0% | ΔCT (corn seeds; [32]): −1.0% | ΔCT (corn seeds; [33]): 1.8% | ΔCT (corn seeds; [34]): 1.3% | ΔCT (corn seeds; [35]): 2.4% | ΔCT (corn seeds; [36]): 0.3% | ΔCT (corn seeds; [37]): 1.1% | ΔCT (corn seeds; [38]): 5.8% | ΔCT (corn seeds; [39]): 4.3% | ΔCT (corn seeds; [40]): 7.2% | ΔCT (corn seeds; [41]): 2.8% | ΔCT (corn seeds; [42]): 4.5% | ΔCT (corn seeds; [43]): −0.5% | ΔCT (corn seeds; [44]): −0.7% | ΔCT (corn seeds; [45]): −2.0% | ΔCT (corn seeds; [46]): −1.8% | ΔCT (corn seeds; [47]): −0.5% | ΔCT (corn seeds; [48]): 0.0% | ΔCT (corn seeds; [49]): 0.5% | ΔCT (corn seeds; [50]): 2.0% | ΔCT (corn seeds; [51]): −0.2% | ΔCT (corn seeds; [52]): −0.7% | CT cold test germination rate, 7 days at 10° C. and 5 days at 25° C. (corn seeds; [33]): 97.0% | CT cold test germination rate, 7 days at 10° C. and 5 days at 25° C. (corn seeds; [34]): 96.6% | CT cold test germination rate, 7 days at 10° C. and 5 days at 25° C. (corn seeds; [35]): 97.7% | CT cold test germination rate, 7 days at 10° C. and 5 days at 25° C. (corn seeds; [36]): 95.5% | CT cold test germination rate, 7 days at 10° C. and 5 days at 25° C. (corn seeds; [37]): 96.3% | CT cold test germination rate, 7 days at 10° C. and 5 days at 25° C. (corn seeds; [38]): 94.8% | CT cold test germination rate, 7 days at 10° C. and 5 days at 25° C. (corn seeds; [39]): 93.3% | CT cold test germination rate, 7 days at 10° C. and 5 days at 25° C. (corn seeds; [40]): 96.3% | CT cold test germination rate, 7 days at 10° C. and 5 days at 25° C. (corn seeds; [41]): 91.8% | CT cold test germination rate, 7 days at 10° C. and 5 days at 25° C. (corn seeds; [42]): 93.5% | CT cold test germination rate, 7 days at 10° C. and 5 days at 25° C. (corn seeds; [43]): 99.0% | CT cold test germination rate, 7 days at 10° C. and 5 days at 25° C. (corn seeds; [44]): 98.8% | CT cold test germination rate, 7 days at 10° C. and 5 days at 25° C. (corn seeds; [45]): 97.5% | CT cold test germination rate, 7 days at 10° C. and 5 days at 25° C. (corn seeds; [46]): 97.8% | CT cold test germination rate, 7 days at 10° C. and 5 days at 25° C. (corn seeds; [47]): 99.0% | CT cold test germination rate, 7 days at 10° C. and 5 days at 25° C. (corn seeds; [48]): 97.3% | CT cold test germination rate, 7 days at 10° C. and 5 days at 25° C. (corn seeds; [49]): 97.8% | CT cold test germination rate, 7 days at 10° C. and 5 days at 25° C. (corn seeds; [50]): 99.3% | CT cold test germination rate, 7 days at 10° C. and 5 days at 25° C. (corn seeds; [51]): 97.0% | CT cold test germination rate, 7 days at 10° C. and 5 days at 25° C. (corn seeds; [52]): 96.5% | DAMINS insect damage, stage V5 ([2]; 5 g Bitrex per 50,000 seeds): 6.8 plants per row and 5.62 % per row | DAMINS insect damage, stage V5 ([2]; 10 g Bitrex per 50,000 seeds): 7.3 plants per row and 6.07 % per row | DAMINS insect damage, stage V5 ([2]; 20 g Bitrex per 50,000 seeds): 5.8 plants per row and 4.79 % per row

— patent US20230086007A1, “USE OF DENATONIUM BENZOATE AS A SEED TREATMENT FOR CROPS AS BIRD AND/OR INSECT REPELLENT” (KWS SAAT SE & Co. KGaA, priority 2020, published 2023)
